# Measured values from patent publication US20240285646A1, “METHODS AND COMPOSITIONS FOR LIPID FORMULATION OF LIPOPHILIC SMALL MOLECULE THERAPIES OF THE HETEROCYCLIC TYPE” (Neuronascent, Inc., priority 2021, published 2024).
# Where “and” joins values, the source holds several entries; their conditions need not be identical. Equal values may be shown once.
# Legend:
# [1] = Phase 1A pharmacokinetics of oral NNI-362 in 1% methylcellulose suspension (Cohorts A-E); assay type: in vivo, human
# Experimental: (§1) A Phase 1A, randomized, placebo-controlled, single and multiple dose, dose-escalation study was conducted to evaluate the safety, tolerability and pharmacokinetics of oral NNI-362 in healthy aged volunteers 50 to 72 years of age. Subjects were fasted prior to dose administration. The plasma concentrations of NNI-362 were determined by a validated bioanalytical method using liquid chromatography-tandem mass spectrometry (LC-MS/MS). The analytical range was 25.0-25000 pg/ml, with 0.0500 ml sample volumes. The stable label d5-NNI-362 was used as the internal standard for this assay.
# (§2) NNI-362 was formulated in 1% (w/v) methylcellulose in sterile water as an oral suspension that was administered to Cohorts A-E. NNI-362 was administered in a lipid-based formulation (medium-chain triglycerides, Kolliphor EL and beeswax; 95/3/2%; NNI-362 added to provide 120 mg/ml) oral suspension) for Cohorts F and G.
# (§3) PK data analysis was performed on the measurable plasma concentrations of NNI-362. The plasma concentration data were evaluated using Phoenix 64® WinNonlin® software (Version 8.3) to perform noncompartmental analysis. Nominal blood collection times were used in data analysis. The dose administered in dose group was entered into the program as mg/subject.
# (§4) The following PK parameters were determined for NNI-362 plasma concentrations for each subject: observed maximal plasma concentration (Cmax), observed time to reach Cmax (Tmax), area under the plasma concentration time curve up to the last blood collection time (AUClast), and extrapolated to infinity (AUCinf), the percent of AUCinf that was extrapolated (% Extrap AUCinf), terminal elimination half-life (t1/2), and mean residence time to infinity (MRTinf). Terminal t1/2, AUCinf, MRTinf could not be calculated in some subjects due to limited data or poor fit (r<0.8) of the terminal phase of the plasma concentration and time curve. Extrapolation of more than 20% of the AUC may result in unreliable values for the terminal parameters.
# [2] = Phase 1A pharmacokinetics of oral NNI-362 in lipid-based formulation (Cohorts F and G); assay type: in vivo, human; settings: for Extrap AUCinf / AUCinf / AUClast / Cmax / MRTinf / Tmax / t1/2 / AUC(0-inf) / AUC(0-t) / MRT inf / half-life: lipid formulation
# Experimental: Exemplary Formulation F2 was prepared by slowly adding NNI-362 into a jar containing 100 mL of lipid-based MCT/Kolliphor EL/Beeswax (95/3/2% w/w) while mixing and then stirring until all powder is wet. The actual weight of NNI-362 was between 11.88 and 12.12 g to provide the nominal concentration of 120 mg/ml.
# as §1, §2, §3, §4
# The correlation coefficient for the terminal phase was determined using WinNonlin. Significant differences in selected pharmacokinetic parameters between the SAD and MAD dose groups of cohorts F and G were evaluated using the t-test (two tail, paired test; p<0.05).
# Solubility of NNI-362 = assay type: physicochemical
# [3] = 60 mg oral, SAD, individual subjects
# [4] = 120 mg oral, SAD, individual subjects
# [5] = human, plasma, 60 mg oral, SAD, individual subjects
# [6] = human, plasma, 120 mg oral, SAD, individual subjects
# [7] = Cohort F, 120 mg oral, MAD, individual subjects
# [8] = Cohort F, 120 mg oral, SAD, individual subjects
# [9] = Cohort G, 240 mg oral, MAD, individual subjects
# [10] = Cohort G, 240 mg oral, SAD, individual subjects
# [11] = human, plasma, po, 120 mg, Cohort F, 120 mg oral, MAD, cohort mean
# [12] = human, plasma, po, 120 mg, Cohort F, 120 mg oral, SAD, cohort mean
# [13] = human, plasma, po, 120 mg, Cohort F, 120 mg oral, SAD, individual subjects
# [14] = human, plasma, po, 240 mg, Cohort G, 240 mg oral, MAD, cohort mean
# [15] = human, plasma, po, 240 mg, Cohort G, 240 mg oral, SAD, cohort mean
structure (smiles),measurement,setting,value
CCOc1ccccc1NC(=S)N1CCCN(c2nc3cc(C)c(C)cc3cc2C#N)CC1 [NNI-362],Cmax,"[1]; 20 mg oral, MAD, individual subjects",0.0251 ng/mL
same,AUClast,[1]; [3],0.623 ng·h/mL
same,Cmax,[1]; [3],0.069 ng/mL and 0.0468 ng/mL and 0.0336 ng/mL
same,Extrap AUCinf,[1]; [3],24.1%
same,Tmax,[1]; [3],6 h and 24 h
same,Cmax,[1]; [4],0.0426 ng/mL and 0.0601 ng/mL
same,Extrap AUCinf,[1]; [4],54.5%
same,Tmax,[1]; [4],6 h and 2 h
same,plasma concentrations of NNI-362,"[1]; Cohort A, single oral dose of 10 mg per subject, LLOQ 25 pg/ml",no plasma samples from these subjects contained quantifiable concentrations
same,plasma drug concentrations,"[1]; Cohort B, 20 mg oral, two subjects, one plasma sample each",> 0.025 ng/mL
same,AUC(0-inf),[1]; [5],0.622 ng·h/mL
same,MRT inf,[1]; [5],9.2 h
same,half-life,[1]; [5],4.09 h
same,AUC(0-inf),[1]; [6],0.908 ng·h/mL
same,MRT inf,[1]; [6],5.5 h
same,half-life,[1]; [6],13.7 h
same,Cmax,"[1]; human, plasma, po, 20 mg, 20 mg oral, MAD, individual subjects, read-out: Cmax",0.0151 ng/mL
same,Tmax,"[1]; human, plasma, po, 20 mg, 20 mg oral, MAD, individual subjects, read-out: Tmax",12 h
same,AUC(0-t),"[1]; human, plasma, po, 60 mg, 60 mg oral, SAD, individual subjects",0.473 ng·h/mL
same,AUC(0-t),"[1]; human, plasma, po, 120 mg, 120 mg oral, SAD, individual subjects",0.414 ng·h/mL
same,Cmax,"[1]; human, plasma, po, 120 mg, 120 mg oral, SAD, individual subjects, read-out: Cmax",0.037 ng/mL
same,Extrap AUCinf,"[2]; Cohort F, 120 mg oral, MAD, cohort mean",30.0%
same,AUCinf,[2]; [7],1.28 ng·h/mL and 3.74 ng·h/mL and 8.95 ng·h/mL and 0.719 ng·h/mL and 2.44 ng·h/mL
same,AUClast,[2]; [7],1.15 ng·h/mL and 2.68 ng·h/mL and 3.8 ng·h/mL and 0.525 ng·h/mL and 1.77 ng·h/mL and 0.179 ng·h/mL
same,Cmax,[2]; [7],0.193 ng/mL and 0.144 ng/mL and 0.208 ng/mL and 0.0638 ng/mL and 0.126 ng/mL and 0.0404 ng/mL
same,Extrap AUCinf,[2]; [7],9.78% and 28.4% and 57.5% and 26.9% and 27.7%
same,MRTinf,[2]; [7],6.68 h and 19.3 h and 42.9 h and 9.7 h and 17.6 h
same,Tmax,[2]; [7],6 h and 2 h and 8 h
same,Extrap AUCinf,"[2]; Cohort F, 120 mg oral, SAD, cohort mean",43.8%
same,AUCinf,[2]; [8],0.8 ng·h/mL and 0.511 ng·h/mL
same,AUClast,[2]; [8],0.555 ng·h/mL and 1.21 ng·h/mL and 0.289 ng·h/mL and 0.561 ng·h/mL and 0.182 ng·h/mL
same,Cmax,[2]; [8],0.101 ng/mL and 0.208 ng/mL and 0.0484 ng/mL and 0.0834 ng/mL and 0.0701 ng/mL and 0.0435 ng/mL
same,Extrap AUCinf,[2]; [8],36.9% and 29.9% and 64.5%
same,MRTinf,[2]; [8],10.2 h and 12.4 h
same,Tmax,[2]; [8],6 h and 8 h and 2 h and 1 h and 4 h and 0.5 h
same,t1/2,[2]; [8],6.15 h and 8.13 h
same,Extrap AUCinf,"[2]; Cohort G, 240 mg oral, MAD, cohort mean",34.4%
same,AUCinf,[2]; [9],4.52 ng·h/mL and 0.426 ng·h/mL and 4.23 ng·h/mL and 3.98 ng·h/mL and 0.975 ng·h/mL
same,AUClast,[2]; [9],1.99 ng·h/mL and 0.235 ng·h/mL and 4 ng·h/mL and 2.61 ng·h/mL and 2.85 ng·h/mL and 0.569 ng·h/mL
same,Cmax,[2]; [9],0.124 ng/mL and 0.059 ng/mL and 0.679 ng/mL and 0.221 ng/mL and 0.267 ng/mL and 0.0822 ng/mL
same,Extrap AUCinf,[2]; [9],54.8% and 43.9% and 5.10% and 27.7% and 40.5%
same,MRTinf,[2]; [9],39.5 h and 7.10 h and 9.51 h and 18.8 h and 13.5 h
same,Tmax,[2]; [9],2 h and 6 h and 1 h
same,t1/2,[2]; [9],26.2 h and 4.29 h and 5.10 h and 13.5 h and 9.24 h
same,Extrap AUCinf,"[2]; Cohort G, 240 mg oral, SAD, cohort mean",28.3%
same,AUCinf,[2]; [10],0.79 ng·h/mL and 2.09 ng·h/mL and 1.09 ng·h/mL
same,AUClast,[2]; [10],0.103 ng·h/mL and 0.677 ng·h/mL and 0.243 ng·h/mL and 1.02 ng·h/mL and 0.88 ng·h/mL
same,Cmax,[2]; [10],0.0523 ng/mL and 0.0316 ng/mL and 0.13 ng/mL and 0.0857 ng/mL and 0.0846 ng/mL and 0.21 ng/mL
same,Extrap AUCinf,[2]; [10],14.4% and 51.1% and 19.3%
same,MRTinf,[2]; [10],7.76 h and 36.9 h and 5.56 h
same,Tmax,[2]; [10],2 h and 6 h and 1 h and 4 h
same,t1/2,[2]; [10],2.6 h and 2.30 h
same,Concentration,"[2]; Formulation F2, Cohort F, 120 mg single dose, Day 1, K3 EDTA human plasma, patient SRI-F-005, 0 h",< LLOQ
same,Concentration,"[2]; Formulation F2, Cohort F, 120 mg single dose, Day 1, K3 EDTA human plasma, patient SRI-F-005, 12 h",< LLOQ
same,Concentration,"[2]; Formulation F2, Cohort F, 120 mg single dose, Day 1, K3 EDTA human plasma, patient SRI-F-005, 24 h",< LLOQ
same,Tmax,"[2]; human, plasma, oral, range over Cohorts F and G, SAD and MAD, read-out: Tmax values",0.5 to 8 h
same,AUC(0-inf),[2]; [11],3.43 ± 3.3 ng·h/mL
same,AUC(0-t),[2]; [11],1.68 ng·h/mL
same,MRT inf,[2]; [11],19.2 ± 14.3 h
same,half-life,[2]; [11],12.2 ± 10.2 h
same,Cmax,"[2]; human, plasma, po, 120 mg, Cohort F, 120 mg oral, MAD, cohort mean, read-out: Cmax",0.129 ng/mL
same,Cmax,"[2]; human, plasma, po, 120 mg, Cohort F, 120 mg oral, MAD, cohort mean, read-out: Cmax after multiple doses",0.129 ± 0.0673 ng/mL
same,Tmax,"[2]; human, plasma, po, 120 mg, Cohort F, 120 mg oral, MAD, cohort mean, read-out: Tmax",4.33 h
same,AUC(0-inf),[2]; [12],0.59 ± 0.184 ng·h/mL
same,AUC(0-t),[2]; [12],0.559 ng·h/mL
same,MRT inf,[2]; [12],9.99 ± 2.55 h
same,half-life,[2]; [12],6.24 ± 1.84 h
same,Cmax,"[2]; human, plasma, po, 120 mg, Cohort F, 120 mg oral, SAD, cohort mean, read-out: Cmax",0.0924 ± 0.0606 ng/mL
same,Tmax,"[2]; human, plasma, po, 120 mg, Cohort F, 120 mg oral, SAD, cohort mean, read-out: Tmax",3.58 h
same,AUC(0-inf),[2]; [13],0.458 ng·h/mL
same,MRT inf,[2]; [13],7.35 h
same,half-life,[2]; [13],4.45 h
same,AUC(0-inf),[2]; [14],2.83 ± 1.96 ng·h/mL
same,AUC(0-t),[2]; [14],2.04 ng·h/mL
same,MRT inf,[2]; [14],17.7 ± 13 h
same,half-life,[2]; [14],11.7 ± 8.94 h
same,Cmax,"[2]; human, plasma, po, 240 mg, Cohort G, 240 mg oral, MAD, cohort mean, read-out: Cmax",0.239 ± 0.23 ng/mL
same,Tmax,"[2]; human, plasma, po, 240 mg, Cohort G, 240 mg oral, MAD, cohort mean, read-out: Tmax",3.17 h
same,AUC(0-inf),[2]; [15],1.32 ± 0.681 ng·h/mL
same,AUC(0-t),[2]; [15],0.585 ng·h/mL
same,MRT inf,[2]; [15],16.7 ± 17.5 h
same,half-life,[2]; [15],2.58 ± 0.25 h
same,Cmax,"[2]; human, plasma, po, 240 mg, Cohort G, 240 mg oral, SAD, cohort mean, read-out: Cmax",0.099 ng/mL
same,Tmax,"[2]; human, plasma, po, 240 mg, Cohort G, 240 mg oral, SAD, cohort mean, read-out: Tmax",2.83 h
same,Cmax,"[2]; human, plasma, po, 240 mg, Cohort G, 240 mg oral, SAD, cohort mean, read-out: mean Cmax",0.099 ± 0.0639 ng/mL
same,half-life,"[2]; human, plasma, po, 240 mg, Cohort G, 240 mg oral, SAD, individual subjects",2.8 h
same,concentration at 0.5 h,"[2]; oral, Formulation F2, Cohort F, 120 mg single dose, Day 1, K3 EDTA human plasma, patient SRI-F-005, 0.5 h",0.0768 ng/mL
same,concentration at 1 h,"[2]; oral, Formulation F2, Cohort F, 120 mg single dose, Day 1, K3 EDTA human plasma, patient SRI-F-005, 1 h",0.0834 ng/mL
same,concentration at 2 h,"[2]; oral, Formulation F2, Cohort F, 120 mg single dose, Day 1, K3 EDTA human plasma, patient SRI-F-005, 2 h",0.0388 ng/mL
same,concentration at 4 h,"[2]; oral, Formulation F2, Cohort F, 120 mg single dose, Day 1, K3 EDTA human plasma, patient SRI-F-005, 4 h",0.0253 ng/mL
same,concentration at 6 h,"[2]; oral, Formulation F2, Cohort F, 120 mg single dose, Day 1, K3 EDTA human plasma, patient SRI-F-005, 6 h",0.0267 ng/mL
same,concentration at 8 h,"[2]; oral, Formulation F2, Cohort F, 120 mg single dose, Day 1, K3 EDTA human plasma, patient SRI-F-005, 8 h",0.0263 ng/mL
same,solubility,Solubility of NNI-362; common organic solvents,soluble in common organic solvents
same,solubility,Solubility of NNI-362; water/aqueous solutions,insoluble in water/aqueous solutions
